Laboratory results as given in US11834454B2, “Alkynylphenylbenzamide compounds and applications thereof” (SHENZHEN NEWDEL BIOTECH CO., LTD., priority 2021, dated 2023).

Tests used:
TRKB = biological target: T1, TRKB (Homo sapiens, UniProt Q16620); test: Z'-LYTE kinase activity detection, TRKB; type: biochemical
T1 construct: purchased American Life Technologies PV3616

BaF3-CD74-NTRK1 = biological target: T2, BaF3-CD74-NTRK1 (Homo sapiens, UniProt P04629); test: Cell proliferation inhibition, Ba/F3-TRKs stable strain (CCK-8); type: cell-based, mouse; details: 72 hours, read-out: cell viability IC50 CD74-NTRK1
T2 construct: fused on or other part: P04233 (HLA class II histocompatibility antigen gamma chain)
Text: (§1) The BaF3 cells (mouse pre-B cells) used in this experiment were purchased from the Japanese Cell Bank. All of the monoclonal stable strains, BaF3-CD74-NTRK1, BaF3-ETV6-NTRK2 and BaF3-ETV6-NTRK3 were constructed by our laboratory, and were identified by experiments such as positive control, protein expression and gene sequencing.
(§2) The brief steps of stable strain construction were as follows: constructed pCDNA3.1(+) plasmid vector carrying genes such as CD74-NTRK1, ETV6-NTRK2, ETV6-NTRK3; the plasmid was electroporated into Ba/F3 cells using Amaxa® Cell Line Nucleofector® Kit V; 48 hours after electroporation, geneticin (G418) with a final concentration of 1000 μg/mL was added to screen for two weeks, and the interleukin 3 (IL3) was removed to continue screening to obtain polyclonal stable strains; and then single clones were selected by limiting dilution method; the stable strains were then identified by the positive drugs, Western Blot (WB), and gene sequencing; the correct monoclonal through identification can be used to study the cell proliferation inhibitory activity of the inhibitors.
(§3) Cell proliferation inhibitory activity study: The cells in logarithmic growth phase were seeded into 96-well plates at 8000-12000 cells/well, and the inhibitors at different concentrations of (0-10 μM) were added the next day, and the culture was continued for 72 hours; then 10 μL of Cell Counting Kit-8 Cell Counting Reagent (CCK-8 Reagent) was added to each well, and continued to incubate for 1-3 hours; then its absorbance at 450 nm and 650 nm were measured with a super microplate reader. The median inhibitory concentration (IC50) was calculated using medical graphing software (GraphPad Prism 8.0.0).

BaF3-ETV6-NTRK2 = biological target: T3, BaF3-ETV6-NTRK2 (Homo sapiens, UniProt Q16620); test: as above; type: cell-based, mouse; details: 72 hours, read-out: cell viability IC50 ETV6-NTRK2
T3 construct: fused on or other part: P41212 (Transcription factor ETV6)
Text: as §1, §2, §3

BaF3-ETV6-NTRK3 = biological target: T4, BaF3-ETV6-NTRK3 (Homo sapiens, UniProt Q16288); test: as above; type: cell-based, mouse; details: 72 hours, read-out: cell viability IC50 ETV6-NTRK3
T4 construct: fused on or other part: P41212 (Transcription factor ETV6)
Text: as §1, §2, §3

TRKA = biological target: T5, TRKA (Homo sapiens, UniProt P04629); test: Z'-LYTE kinase activity detection, TRKA; type: biochemical
T5 construct: purchased American Life Technologies PV3144

SRC = SRC (Homo sapiens, UniProt P12931); test: Kinase selectivity, Z'-LYTE
Protocol: (§6) Enzymatic reaction: In a 384-well plate, added 5 μL of enzyme-substrate system [50 mM 4-hydroxyethylpiperazineethanesulfonic acid (HEPES) pH 7.5, 0.01% BRIJ-35, 10 mM of magnesium chloride (MgCl2), 1 mM of ethylene glycol bis(2-aminoethyl ether)tetraacetic acid (EGTA), 2 μM of Tyr 01 peptide substrate], transferred 5 nL of compound (concentration gradient) using an Echo520 Ultra-Micro Liquid Pipetting System. […] Shaked and mixed, then centrifuged, and reacted at 30° C. in the dark for 1.5 hours.

PDGFRB = PDGFRB (Homo sapiens, UniProt P09619); test: Kinase selectivity, Z'-LYTE
Protocol: as §6

[1] = test system: Ba/F3-CD74-TRKAG^667C allograft mouse model; test: In vivo antitumor efficacy, allograft mouse model; design: species or system CB17-SCID female mice; details: for TGI: after treatment for 12 days
Protocol: (§4) After washed twice with normal saline, the cells were adjusted to a density of 1×10^7 cells/mL and placed on ice, and injected subcutaneously into the right axilla of CB17-SCID female mice (purchased from Viton Lever, Beijing, 6-8 weeks old) as soon as possible, with 200 μL each injection.
(§5) The control group was given the same volume of mixed solvent orally. Body weight and tumor volume were recorded every two days.

[2] = Effect on the body weight of mice in the allograft study; type: in vivo, CB17-SCID female mice; details: four doses 6.25, 12.5, 25, 50 mg/kg oral once a day
Protocol: as §4, §5

PDGFRA = PDGFRA (Homo sapiens, UniProt P16234); test: Kinase selectivity, Z'-LYTE
Protocol: as §6

VEGFR2 = VEGFR2 (Homo sapiens, UniProt P35968); test: Kinase selectivity, Z'-LYTE
Protocol: as §6

RET = RET (Homo sapiens, UniProt P07949); test: Kinase selectivity, Z'-LYTE
Protocol: as §6

Kit = Kit (Homo sapiens, UniProt P10721); test: Kinase selectivity, Z'-LYTE
Protocol: as §6

Bcr-Abl = Bcr-Abl (Homo sapiens, UniProt P00519); test: Kinase selectivity, Z'-LYTE
Protocol: as §6

[3] = Pharmacokinetic and oral bioavailability tests in SD rats; type: in vivo
Protocol: Pharmacokinetic and oral bioavailability tests were performed in SD rats. According to the drug's solubility, the drug was administered orally and intravenously as a single dose. Animal blood samples were collected at different time points (0, 0.5, 1, 2, 4, 6, 8, 24 hours), and added with heparin for anticoagulation, then centrifugated to obtain the supernatant. Blood samples were analyzed by HPLC-MS, and DAS2.1 was used for data analysis to detect half-life (T½), maximum blood concentration (Cmax), peak time (Tmax), area under the curve (AUC), and bioavailability (BA) and other pharmacokinetic data.

[4] = Sprague-Dawley (SD), rat, plasma, intravenous injection, 2.0 mg/kg
[5] = Sprague-Dawley (SD), rat, plasma, oral, 10.0 mg/kg

T5 sequence (P04629 33-796): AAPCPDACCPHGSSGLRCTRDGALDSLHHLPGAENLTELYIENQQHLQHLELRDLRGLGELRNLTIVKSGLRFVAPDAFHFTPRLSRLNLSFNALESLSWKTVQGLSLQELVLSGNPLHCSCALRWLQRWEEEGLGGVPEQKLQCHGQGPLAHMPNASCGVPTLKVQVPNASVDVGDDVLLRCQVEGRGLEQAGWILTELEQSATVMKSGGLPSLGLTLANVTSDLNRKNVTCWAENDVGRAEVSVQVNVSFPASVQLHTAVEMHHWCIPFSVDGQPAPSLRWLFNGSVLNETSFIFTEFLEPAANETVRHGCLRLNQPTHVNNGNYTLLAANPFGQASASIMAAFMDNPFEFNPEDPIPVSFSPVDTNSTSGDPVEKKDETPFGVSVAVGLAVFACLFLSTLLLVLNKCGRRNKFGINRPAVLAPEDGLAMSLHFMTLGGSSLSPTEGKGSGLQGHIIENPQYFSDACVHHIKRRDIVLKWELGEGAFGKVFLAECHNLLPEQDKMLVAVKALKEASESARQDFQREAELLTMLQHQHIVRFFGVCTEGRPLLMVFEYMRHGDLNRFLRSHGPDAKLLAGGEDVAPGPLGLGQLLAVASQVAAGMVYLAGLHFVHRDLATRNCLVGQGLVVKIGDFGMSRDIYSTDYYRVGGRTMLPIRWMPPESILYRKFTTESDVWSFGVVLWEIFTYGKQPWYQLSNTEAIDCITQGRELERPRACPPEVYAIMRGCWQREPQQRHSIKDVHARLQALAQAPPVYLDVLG
T1 sequence (Q16620 32-822): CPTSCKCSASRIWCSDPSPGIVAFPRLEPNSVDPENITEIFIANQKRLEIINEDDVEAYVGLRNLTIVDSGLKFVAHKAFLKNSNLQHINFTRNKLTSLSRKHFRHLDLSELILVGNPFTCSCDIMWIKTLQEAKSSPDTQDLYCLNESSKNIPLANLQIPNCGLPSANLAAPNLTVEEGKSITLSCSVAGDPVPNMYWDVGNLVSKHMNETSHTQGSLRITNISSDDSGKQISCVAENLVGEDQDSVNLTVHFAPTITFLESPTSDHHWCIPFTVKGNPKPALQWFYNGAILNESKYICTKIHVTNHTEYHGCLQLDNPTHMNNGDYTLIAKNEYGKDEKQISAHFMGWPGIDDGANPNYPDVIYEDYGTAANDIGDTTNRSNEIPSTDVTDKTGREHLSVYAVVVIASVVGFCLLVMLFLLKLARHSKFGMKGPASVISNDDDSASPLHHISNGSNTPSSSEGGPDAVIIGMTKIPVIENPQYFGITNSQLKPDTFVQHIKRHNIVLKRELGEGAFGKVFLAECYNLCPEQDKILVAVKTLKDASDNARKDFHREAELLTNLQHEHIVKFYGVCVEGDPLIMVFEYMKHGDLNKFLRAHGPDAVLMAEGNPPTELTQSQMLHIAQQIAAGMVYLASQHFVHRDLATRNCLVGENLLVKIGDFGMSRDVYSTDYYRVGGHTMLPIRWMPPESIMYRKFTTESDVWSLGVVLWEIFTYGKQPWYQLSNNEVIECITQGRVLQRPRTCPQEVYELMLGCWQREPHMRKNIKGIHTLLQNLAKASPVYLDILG
T2 sequence (P04629 510-796 limits assumed): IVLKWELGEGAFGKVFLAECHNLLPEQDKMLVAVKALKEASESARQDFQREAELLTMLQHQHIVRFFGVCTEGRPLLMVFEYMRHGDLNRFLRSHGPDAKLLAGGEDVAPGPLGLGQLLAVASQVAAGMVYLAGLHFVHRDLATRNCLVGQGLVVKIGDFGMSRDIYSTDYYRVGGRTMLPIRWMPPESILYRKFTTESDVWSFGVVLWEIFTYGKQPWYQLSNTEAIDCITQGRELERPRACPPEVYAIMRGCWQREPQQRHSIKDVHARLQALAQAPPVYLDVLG
T3 sequence (Q16620 538-822 limits assumed): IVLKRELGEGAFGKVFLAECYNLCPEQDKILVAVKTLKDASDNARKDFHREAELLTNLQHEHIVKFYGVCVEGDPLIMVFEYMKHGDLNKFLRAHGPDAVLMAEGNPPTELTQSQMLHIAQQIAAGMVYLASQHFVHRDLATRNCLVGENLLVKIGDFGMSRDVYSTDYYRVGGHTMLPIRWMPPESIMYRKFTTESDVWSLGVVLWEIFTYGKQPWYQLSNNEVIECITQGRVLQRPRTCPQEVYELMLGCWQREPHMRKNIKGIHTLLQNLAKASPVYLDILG
T4 sequence (Q16288 whole entry, the tested form may be a part): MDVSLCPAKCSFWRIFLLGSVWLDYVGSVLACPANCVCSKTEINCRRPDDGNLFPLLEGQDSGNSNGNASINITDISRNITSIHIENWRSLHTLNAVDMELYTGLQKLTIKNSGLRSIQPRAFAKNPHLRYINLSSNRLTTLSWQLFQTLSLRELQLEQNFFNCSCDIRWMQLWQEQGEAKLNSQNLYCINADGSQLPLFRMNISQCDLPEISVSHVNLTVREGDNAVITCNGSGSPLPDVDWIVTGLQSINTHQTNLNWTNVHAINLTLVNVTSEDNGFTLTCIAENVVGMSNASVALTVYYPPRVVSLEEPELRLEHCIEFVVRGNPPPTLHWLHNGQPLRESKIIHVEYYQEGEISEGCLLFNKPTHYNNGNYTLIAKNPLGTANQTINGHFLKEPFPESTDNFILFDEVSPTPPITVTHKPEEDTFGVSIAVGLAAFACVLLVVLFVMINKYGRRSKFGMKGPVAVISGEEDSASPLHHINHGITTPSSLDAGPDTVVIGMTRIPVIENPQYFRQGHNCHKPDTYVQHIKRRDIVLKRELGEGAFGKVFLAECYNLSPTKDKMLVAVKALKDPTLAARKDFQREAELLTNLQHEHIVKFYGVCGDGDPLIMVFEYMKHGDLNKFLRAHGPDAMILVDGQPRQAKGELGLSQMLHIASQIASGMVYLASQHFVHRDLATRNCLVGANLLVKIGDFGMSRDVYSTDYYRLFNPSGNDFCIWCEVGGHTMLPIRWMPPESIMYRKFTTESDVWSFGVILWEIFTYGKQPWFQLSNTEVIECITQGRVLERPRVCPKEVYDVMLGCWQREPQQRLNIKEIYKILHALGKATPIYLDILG
Sequence of PDGFRB (P09619 33-1106, species assumed): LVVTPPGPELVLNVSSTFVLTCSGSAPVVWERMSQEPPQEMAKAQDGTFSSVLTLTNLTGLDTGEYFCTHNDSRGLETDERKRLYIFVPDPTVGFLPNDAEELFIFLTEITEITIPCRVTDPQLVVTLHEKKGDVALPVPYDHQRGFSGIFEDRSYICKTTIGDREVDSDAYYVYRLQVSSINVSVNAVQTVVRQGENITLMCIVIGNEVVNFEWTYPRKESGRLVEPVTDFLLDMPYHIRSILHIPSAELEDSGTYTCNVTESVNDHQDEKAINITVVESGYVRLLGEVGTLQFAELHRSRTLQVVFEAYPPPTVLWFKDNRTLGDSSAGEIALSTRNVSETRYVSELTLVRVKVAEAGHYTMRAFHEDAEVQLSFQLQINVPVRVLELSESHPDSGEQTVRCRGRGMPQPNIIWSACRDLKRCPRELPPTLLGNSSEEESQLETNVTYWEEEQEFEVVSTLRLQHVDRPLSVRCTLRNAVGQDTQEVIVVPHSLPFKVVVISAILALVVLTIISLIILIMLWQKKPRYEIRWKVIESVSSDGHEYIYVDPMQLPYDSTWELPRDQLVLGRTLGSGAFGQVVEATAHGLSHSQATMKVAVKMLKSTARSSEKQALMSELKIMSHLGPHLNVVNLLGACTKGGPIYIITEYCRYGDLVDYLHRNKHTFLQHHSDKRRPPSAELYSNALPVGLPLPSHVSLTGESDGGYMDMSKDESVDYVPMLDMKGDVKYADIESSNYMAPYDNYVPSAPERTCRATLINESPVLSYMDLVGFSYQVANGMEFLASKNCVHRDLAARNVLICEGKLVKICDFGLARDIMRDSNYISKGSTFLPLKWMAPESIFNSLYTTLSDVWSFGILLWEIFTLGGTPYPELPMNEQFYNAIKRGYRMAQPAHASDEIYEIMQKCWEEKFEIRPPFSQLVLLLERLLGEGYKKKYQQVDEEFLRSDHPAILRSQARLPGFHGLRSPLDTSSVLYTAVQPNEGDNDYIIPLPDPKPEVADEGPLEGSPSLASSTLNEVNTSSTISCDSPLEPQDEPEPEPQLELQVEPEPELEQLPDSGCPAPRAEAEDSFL
Sequence of SRC (P12931 whole entry, species assumed): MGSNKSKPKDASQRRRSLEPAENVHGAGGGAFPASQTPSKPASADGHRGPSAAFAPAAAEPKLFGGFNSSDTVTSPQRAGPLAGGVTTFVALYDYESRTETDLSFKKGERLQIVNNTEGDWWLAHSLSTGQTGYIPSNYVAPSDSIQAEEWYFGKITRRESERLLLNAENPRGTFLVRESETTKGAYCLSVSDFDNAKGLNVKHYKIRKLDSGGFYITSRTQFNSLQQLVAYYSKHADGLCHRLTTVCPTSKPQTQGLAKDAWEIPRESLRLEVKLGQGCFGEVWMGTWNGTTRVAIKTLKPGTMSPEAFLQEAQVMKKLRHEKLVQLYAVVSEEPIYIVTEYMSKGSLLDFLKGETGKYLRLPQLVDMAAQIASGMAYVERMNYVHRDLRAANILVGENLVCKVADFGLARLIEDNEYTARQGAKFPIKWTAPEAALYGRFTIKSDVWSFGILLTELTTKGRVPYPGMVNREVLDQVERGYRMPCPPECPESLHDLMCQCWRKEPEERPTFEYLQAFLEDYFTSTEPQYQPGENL
Sequence of Bcr-Abl (P00519 242-493 limits assumed): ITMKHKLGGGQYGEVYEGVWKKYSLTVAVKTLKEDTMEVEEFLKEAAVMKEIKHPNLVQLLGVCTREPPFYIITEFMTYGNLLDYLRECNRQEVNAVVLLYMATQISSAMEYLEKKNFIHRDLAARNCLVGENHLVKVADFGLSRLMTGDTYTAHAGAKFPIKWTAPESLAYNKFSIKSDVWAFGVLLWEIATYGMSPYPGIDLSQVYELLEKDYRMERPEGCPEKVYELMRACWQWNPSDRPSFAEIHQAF

## Cc1c(C#Cc2cnc3ccc(N4CCC(O)CC4)nn23)cccc1C(=O)Nc1cc(CN2CCN(C)CC2)cc(C(F)(F)F)c1 [XS3-81, 3-((6-(4-HYDROXYPIPERIDIN-1-YL)IMIDAZO[1,2-B]PYRIDAZIN-3-YL)ETHYNYL)-2-METHYL-N-(3-(((4-METHYLPIPERAZIN-1-YL)METHYL)-5-(TRIFLUOROMETHYL)PHENYL)BENZAMIDE]
TRKB
  IC50: < 10 nM
BaF3-CD74-NTRK1
  IC50: 10 to 100 nM
BaF3-ETV6-NTRK2
  IC50: < 10 nM
BaF3-ETV6-NTRK3
  IC50: < 10 nM
TRKA
  IC50: < 10 nM

## Cc1c(C#Cc2cnc3ccc(N4CCOCC4)nn23)cccc1C(=O)Nc1cc(CN2CCN(C)CC2)cc(C(F)(F)F)c1 [XS3-68, 2-METHYL-N-(3-((4-METHYLPIPERAZIN-1-YL)METHYL)-5-(TRIFLUOROMETHYL)PHENYL)-3-((6-METHYLENE) LINOIMIDAZO[1,2-B]PYRIDAZIN-3-YL)ETHYNYL)BENZAMIDE]
TRKB
  IC50: < 10 nM
BaF3-CD74-NTRK1
  IC50: < 10 nM
BaF3-ETV6-NTRK2
  IC50: 10 to 100 nM
BaF3-ETV6-NTRK3
  IC50: < 10 nM
TRKA
  IC50: < 10 nM

## Cc1cn(-c2cc(NC(=O)c3cccc(C#Cc4cnc5ccc(N6CCC(O)CC6)nn45)c3C)cc(C(F)(F)F)c2)cn1 [XS3-87, 3-((6-(4-HYDROXYPIPERIDIN-1-YL)IMIDAZO[1,2-B]PYRIDAZIN-3-YL)ETHYNYL)-2-METHYL-N-(3-(4-METHYL-1H-IMIDAZOL-1-YL)-5-(TRIFLUOROMETHYL)PHENYL)BENZAMIDE]
TRKB
  IC50: < 10 nM
BaF3-CD74-NTRK1
  IC50: < 10 nM
BaF3-ETV6-NTRK2
  IC50: 10 to 100 nM
BaF3-ETV6-NTRK3
  IC50: < 10 nM
TRKA
  IC50: < 10 nM

## Cc1c(C#Cc2cnc3ccc(N4CCC(O)CC4)nn23)cccc1C(=O)Nc1cc(Cl)cc(C(F)(F)F)c1 [XS3-55, N-(3-CHLORO-5-(TRIFLUOROMETHYL)PHENYL)-3-((6-(4-HYDROXYPIPERIDIN-1-YL)IMIDAZO[1,2-B]PYRIDAZINE-3-YL)ETHYNYL)-2-METHYLBENZAMIDE]
SRC
  IC50: 526 nM
PDGFRB
  IC50: > 10000 nM
[1]; 6.25 mg/kg/day oral
  TGI: 50.9%
[1]; 12.5 mg/kg/day oral
  TGI: 76.3%
[1]; 25 mg/kg/day oral
  TGI: 89.2%
[1]; 50 mg/kg/day oral
  TGI: 91.6%
[1]; after 2 days of treatment at the lowest dose of 6.25 mg/kg, oral
  tumor size: Significant reductions in tumor size
[2]
  effect on mouse body weight: no obvious adverse effect
BaF3-CD74-NTRK1
  IC50: 10 to 100 nM
BaF3-ETV6-NTRK3
  IC50: 10 to 100 nM
PDGFRA
  IC50: 5890 nM
VEGFR2
  IC50: 833 nM
TRKA
  IC50: < 10 nM
RET
  IC50: > 10000 nM
Kit
  IC50: 1670 nM
Bcr-Abl
  IC50: > 10000 nM
[3]; [4]
  AUC(0-inf): 549 µg·h/mL
  AUC(0-t): 358 µg·h/mL
  Cmax: 46100 ng/mL
  Tmax: 0.08 h
  half-life: 16.1 h
[3]; Sprague-Dawley (SD), rat, plasma, intravenous injection, 2.0 mg/kg, read-out: Clearance rate (converted)
  clearance: 3.65 mL/h/kg
[3]; [5]
  AUC(0-inf): 878 µg·h/mL
  AUC(0-t): 561 µg·h/mL
  Cmax: 44100 ng/mL
  Tmax: 4 h
  half-life: 15.2 h
[3]; oral 10.0 mg/kg vs intravenous 2.0 mg/kg
  BA: 31.32%
